Consider five compounds from patent US20110130397A1, “PYRROLINONE COMPOUNDS AS INHIBITORS OF BACTERIAL PEPTIDYL TRNA HYDROLASE AND USES THEREOF” (priority 2006, published 2011).

The nature of series [1]: Cytotoxicity (CellTiter 96 Aqueous Non-Radioactive Cell Proliferation Assay). Particulars: human, Huh7 cells. Type of series: cell-based. Here is the method:
Novel antibacterial peptidyl tRNA hydrolase inhibitors were identified using the MIC assay (inhibition ranged from 32-100%). The inhibitors were also bacteria specific, as evidenced by the low cytotoxicity observed for the human Huh7 cells (FIG. 4). Cytotoxicity was determined according to manufacturer's directions (CellTiter 96 Aqueous Non-Radioactive Cell Proliferation Assay, Promega).
Further data for representative compounds is set forth in Table 1 (MIC and cytotoxicity). Compounds were tested against S. aureus (ATCC 29213) and E. coli (BAS849—permeable) in the MIC assays. Certain compounds were also tested against other bacteria, including S. epidermis (ATCC 12228), E. faecium (ATCC 49624), and E. faecalis (ATCC 29212). Cytotoxicity was determined using Hu7 cells and Hep G2 cells. The MIC and cytotoxicity assays were performed as described above.

Structures are written as SMILES. Where only a bound is given, the exact number is not on record here.

The term CC50 denotes the concentration that lowers cell viability or growth by half. Usually melting point stands for the temperature of the solid-liquid transition. In turn, `CC(=O)c1sc(N2C(=O)C(O)=C(C(=O)c3cc4ccccc4o3)C2c2ccccc2)nc1C` (stereo not shown) [Compound 54] came in with a melting point of 205 to 208 °C. The CC50 in series [1] amounted to 78.5 µM.

Compound `CC(=O)c1sc(N2C(=O)C(O)=C(C(=O)c3cc4ccccc4o3)C2c2ccc(-c3ccccc3)cc2)nc1C` (stereo not shown) [Compound 55] came in with a melting point of 226 to 228 °C. In addition, the CC50 in series [1] was 42.9 µM.

The compound `CC(=O)c1sc(N2C(=O)C(O)=C(C(=O)c3cc4ccccc4o3)C2c2ccc(Oc3ccccc3)cc2)nc1C` (stereo not shown) [Compound 56] gave a melting point of 251 to 253 °C. The CC50 in series [1] was above 984 µM.

In the case of `CCCCOc1ccc(C2C(C(=O)c3cc4ccccc4o3)=C(O)C(=O)N2c2nc(C)c(C(C)=O)s2)cc1` (stereo not shown) [Compound 57], the melting point lay within 186 to 188 °C. Also, in series [1], the CC50 is above 91 µM.

Compound `Cc1coc(N2C(=O)C(O)=C(C(=O)c3cc4ccccc4o3)C2c2ccc(OCc3ccccc3)cc2)n1` (stereo not shown) [Compound 58] returned a melting point of 169 to 171 °C. The half-maximal cytotoxic concentration (CC50) in series [1] was above 94 µM.
